Source: patent US9376371B2, “Triphenylamine derivative, method for manufacturing the same, and electrophotographic photosensitive member” (KYOCERA DOCUMENT SOLUTIONS INC., priority 2013, dated 2016)

Legend:
[1] = Evaluation of solubility in tetrahydrofuran; format: physicochemical; conditions: 25° C., {100/(100+X)}×100
Protocol: The thus obtained triphenylamine derivatives HTM-1 to HTM-14 each as the hole transport material were evaluated for the solubility. A small amount of tetrahydrofuran was added to 100 mg of each triphenylamine derivative under the temperature of 25° C. Then, the resulting sample was vibrated and left to stand. This process was repeated to measure the added amount X (mg) of tetrahydrofuran dissolved in the triphenylamine derivative to saturation. With the added amount X, the equation below gives the solubility. Solubility (%)={100/(100+X)}×100 <Evaluation of Ionization Potentials>

[2] = Evaluation of ionization potential (AC-1 ultraviolet photoelectron analyzer); format: physicochemical; conditions: atmosphere type ultraviolet photoelectron analyzing apparatus AC-1
Description: The respective triphenylamine derivatives HTM-1 to HTM-14 were each evaluated for the ionization potential. An atmosphere type ultraviolet photoelectron analyzing apparatus (AC-1 manufactured by Riken Keiki Co., Ltd.) was used to measure the ionization potential.

| Structure (SMILES) | THF Solubility [1] [%] | Ionization Potential [2] [eV] |
| --- | --- | --- |
| CCOc1ccccc1N(c1ccc(/C=C/C=C/c2ccccc2)cc1)c1ccc(/C=C/C=C/c2ccccc2)cc1 [HTM-1] | 25.0 | 5.38 |
| COc1ccc(N(c2ccc(/C=C/C=C/c3ccccc3)cc2)c2ccc(/C=C/C=C/c3ccccc3)cc2)c(OC)c1 [HTM-5] | 20.0 | 5.33 |
| CCOc1ccc(N(c2ccc(/C=C/C=C/c3ccccc3)cc2)c2ccc(/C=C/C=C/c3ccccc3)cc2)c(C)c1 [HTM-7] | 25.8 | 5.39 |
| Cc1ccc(N(c2ccc(/C=C/C=C/c3ccccc3)cc2)c2ccc(/C=C/C=C/c3ccccc3)cc2)c(C)c1 [HTM-9] | 12.3 | 5.46 |
| Cc1cccc(C)c1N(c1ccc(/C=C/C=C/c2ccccc2)cc1)c1ccc(/C=C/C=C/c2ccccc2)cc1 [HTM-11] | 11.4 | 5.55 |
| COc1ccc(N(c2ccc(/C=C/C=C/c3ccccc3)cc2)c2ccc(/C=C/C=C/c3ccccc3)cc2)cc1 [HTM-12] | 7.5 | 5.43 |
| COc1ccccc1N(c1ccc(/C=C/C=C/c2ccccc2)cc1)c1ccc(/C=C/C=C/c2ccccc2)cc1 [HTM-14] | 6.3 | 5.43 |

More lines, now with the values ahead:

| THF Solubility [1] [%] | Ionization Potential [2] [eV] | Structure (SMILES) |
| --- | --- | --- |
| 23.5 | 5.37 | CCOc1cccc(C)c1N(c1ccc(/C=C/C=C/c2ccccc2)cc1)c1ccc(/C=C/C=C/c2ccccc2)cc1 [HTM-2] |
| 24.1 | 5.39 | CCCCOc1ccccc1N(c1ccc(/C=C/C=C/c2ccccc2)cc1)c1ccc(/C=C/C=C/c2ccccc2)cc1 [HTM-3] |
| 22.8 | 5.39 | CCOc1cc(C)ccc1N(c1ccc(/C=C/C=C/c2ccccc2)cc1)c1ccc(/C=C/C=C/c2ccccc2)cc1 [HTM-4] |
| 24.5 | 5.38 | COc1ccc(N(c2ccc(/C=C/C=C/c3ccccc3)cc2)c2ccc(/C=C/C=C/c3ccccc3)cc2)c(C)c1 [HTM-6] |
| 21.0 | 5.48 | C(/C=C/c1ccc(N(c2ccc(/C=C/C=C/c3ccccc3)cc2)c2ccc(Oc3ccccc3)cc2)cc1)=C\c1ccccc1 [HTM-8] |
| 17.8 | 5.42 | CCCCc1ccc(N(c2ccc(/C=C/C=C/c3ccccc3)cc2)c2ccc(/C=C/C=C/c3ccccc3)cc2)cc1 [HTM-10] |
| 6.1 | 5.45 | COc1cccc(N(c2ccc(/C=C/C=C/c3ccccc3)cc2)c2ccc(/C=C/C=C/c3ccccc3)cc2)c1 [HTM-13] |
